Laboratory results published in US8133884B2, “Compounds for the treatment of hepatitis C” (priority 2008, dated 2012).

Key:
HCV NS5B = target: T1, HCV NS5B (Hepatitis C virus genotype 1b, UniProt Q9WMX2); experiment: Modified HCV NS5B RdRp enzyme assay (preincubation protocol); format: biochemical
T1 construct: The protein was expressed with an 18 amino acid C-terminal truncation to enhance the solubility; made in house; host or cells: E. coli BL21(DE3)
Experimental: The cDNA encoding the NS5B protein of HCV, genotype 1b, was cloned into the pET21a expression vector. The protein was expressed with an 18 amino acid C-terminal truncation to enhance the solubility. The E. coli competent cell line BL21(DE3) was used for expression of the protein. Cultures were grown at 37° C. for ˜4 hours until the cultures reached an optical density of 2.0 at 600 nm. The cultures were cooled to 20° C. and induced with 1 mM IPTG. Fresh ampicillin was added to a final concentration of 50 μg/ml and the cells were grown overnight at 20° C.
Cell pellets (3 L) were lysed for purification to yield 15-24 mgs of purified NS5B. The lysis buffer consisted of 20 mM Tris-HCl, pH 7.4, 500 mM NaCl, 0.5% triton X-100, 1 mM DTT, 1 mM EDTA, 20% glycerol, 0.5 mg/ml lysozyme, 10 mM MgCl2, 15 ug/ml deoxyribonuclease I, and Complete TM protease inhibitor tablets (Roche). After addition of the lysis buffer, frozen cell pellets were resuspended using a tissue homogenizer. To reduce the viscosity of the sample, aliquots of the lysate were sonicated on ice using a microtip attached to a Branson sonicator. The sonicated lysate was centrifuged at 100,000×g for 1 hr at 4° C. and filtered through a 0.2 μm filter unit (Corning).
The protein was purified using three sequential chromatography steps: Heparin sepharose CL-6B, polyU sepharose 4B, and […] SP sepharose (Pharmacia). The chromatography buffers were identical to the lysis buffer but contained no lysozyme, deoxyribonuclease I, MgCl2 or protease inhibitor and the NaCl concentration of the buffer was adjusted according to the requirements for charging the protein onto the column. Each column was eluted with a NaCl gradient which varied in length from 5-50 column volumes depending on the column type. After the final chromatography step, the resulting purity of the enzyme is >90% based on SDS-PAGE analysis. The enzyme was aliquoted and stored at −80° C.
HCV RdRp genotype 1b assays were run in a final volume of 60 μl in 96 well plates (Costar 3912). The assay buffer is composed of 20 mM Hepes, pH 7.5, 2.5 mM KCl, 2.5 mM MgCl2, 1 mM DTT, 1.6 U RNAse inhibitor (Promega N2515), 0.1 mg/ml BSA (Promega R3961), and 2% glycerol. All compounds were serially diluted (3-fold) in DMSO and diluted further in water such that the final concentration of DMSO in the assay was 2%. HCV RdRp genotype 1b enzyme was used at a final concentration of 28 nM. A polyA template was used at 6 nM, and a biotinylated oligo-dT12 primer was used at 180 nM final concentration. Template was obtained commercially (Amersham 27-4110). Biotinylated primer was prepared by Sigma Genosys. 3H-UTP was used at 0.6 μCi (0.29 μM total UTP). Reactions were initiated by the addition of enzyme, incubated at 30° C. for 60 min, and stopped by adding 25 μl of 50 mM EDTA containing SPA beads (4 μg/μl, Amersham RPNQ 0007). Plates were read on a Packard TOPCOUNT® NXT after >1 hr incubation at room temperature.
A modified enzyme assay was performed essentially as described for the standard enzyme assay except for the following: The biotinylated oligo dT12 primer was precaptured on streptavidin-coated SPA beads by mixing primer and beads in assay buffer and incubating at room temperature for one hour. Unbound primer was removed after centrifugation. The primer-bound beads were resuspended in 20 mM Hepes buffer, pH 7.5 and used in the assay at final concentrations of 20 nM primer and 0.67 μg/μl beads. Order of addition in the assay: enzyme (14 nM) was added to diluted compound followed by the addition of a mixture of template (0.2 nM), 3H-UTP (0.6 μCi, 0.29 μM), and primer-bound beads, to initiate the reaction; concentrations given are final. Reactions were allowed to proceed for 4 hours at 30° C.
IC50 values for compounds were determined using seven different [I]. IC50 values were calculated from the inhibition using the formula y=A+((B−A)/(1+((C/x)^D))).

HCV replicon = HCV replicon assay (FRET or luciferase reporter); format: cell-based; settings: Hepatitis C virus, one of the methods described
Text: To perform the HCV FRET screening assay, 96-well cell culture plates were used, The FRET peptide (Anaspec, Inc.) (Taliani et al., Anal. Biochem., 240:60-67 (1996)) contains a fluorescence donor, EDANS, near one end of the peptide and an acceptor, DABCYL, near the other end. The fluorescence of the peptide is quenched by […] resonance energy transfer (RET) between the donor and the acceptor, but as the NS3 protease cleaves the peptide the products are released from RET quenching and the fluorescence of the donor becomes apparent. The assay reagent was made as follows: 5× cell Luciferase cell culture lysis reagent from Promega (#E153A) diluted to 1× with dH2O, NaCl added to 150 mM final, the FRET peptide diluted to 20 μM final from a 2 mM stock.
To prepare plates, HCV replicon cells, with or without a Renilla luciferase reporter gene, were trypsinized and placed into each well of a 96-well plate with titrated test compounds added in columns 3 through 12; columns 1 and 2 contained a control compound (HCV protease inhibitor), and the bottom row contained cells without compound. The plates were then placed in a CO2 incubator at 37° C.
Subsequent to addition of the test compounds described above (FRET Assay Preparation), at various times the plate was removed and Alamar blue solution (Trek Diagnostics, #00-100) was added per well as a measure of cellular toxicity. After reading in a CYTOFLUOR® 4000 instrument (PE Biosystems), plates were rinsed with PBS and then used for FRET assay by the addition of 30 ul of the FRET peptide assay reagent described above (FRET Assay Preparation) per well. The plate was then placed into the CYTOFLUOR® 4000 instrument which had been set to 340 excite/490 emission, automatic mode for 20 cycles and the plate read in a kinetic mode. Typically, the signal to noise using an endpoint analysis after the reads was at least three-fold. Alternatively, after Alamar blue reading, plates were rinsed with PBS, 50 ul of DMEM (high glucose) without phenol red was added and plates were then used for luciferase assay using the Promega DUAL-GLO® Luciferase Assay System.
Compound analysis was determined by quantification of the relative HCV replicon inhibition and the relative cytotoxicity values. To calculate cytoxicity values, the average Alamar Blue fluorescence signals from the control wells were set as 100% non-toxic. The individual signals in each of the compound test wells were then divided by the average control signal and multiplied by 100% to determine […]. To calculate the HCV replicon inhibition values, an average background value was obtained from the two wells containing the highest amount of HCV protease inhibitor at the end of the assay period. These numbers were similar to those obtained from naïve Huh-7 cells.
The background numbers were then subtracted from the average signal obtained from the control wells and this number was used as 100% activity. The individual signals in each of the compound test wells were then divided by the averaged control values after background subtraction and multiplied by 100% to determine percent activity. EC50 values for a protease inhibitor titration were calculated as the concentration which caused a 50% reduction in FRET or luciferase activity. The two numbers generated for the compound plate, percent cytoxicity and percent activity were used to determine compounds of interest for further analysis.
The HCV replicon luciferase assay was developed to monitor the inhibitory effects of compounds described in the disclosure on HCV viral replication. Utilization of a replicon luciferase reporter assay was first described by Krieger et al (Krieger, N. et al., J. Virology, 75(10):4614-4624 (2001)). HUH-7 cells, constitutively expressing the HCV replicon, were grown in Dulbecco's Modified Eagle Media (DMEM) (Gibco-BRL) containing 10% Fetal calf serum (FCS) (Sigma) and 1 mg/ml G418 (Gibco-BRL). […]

T1 sequence (Q9WMX2 2420-2992): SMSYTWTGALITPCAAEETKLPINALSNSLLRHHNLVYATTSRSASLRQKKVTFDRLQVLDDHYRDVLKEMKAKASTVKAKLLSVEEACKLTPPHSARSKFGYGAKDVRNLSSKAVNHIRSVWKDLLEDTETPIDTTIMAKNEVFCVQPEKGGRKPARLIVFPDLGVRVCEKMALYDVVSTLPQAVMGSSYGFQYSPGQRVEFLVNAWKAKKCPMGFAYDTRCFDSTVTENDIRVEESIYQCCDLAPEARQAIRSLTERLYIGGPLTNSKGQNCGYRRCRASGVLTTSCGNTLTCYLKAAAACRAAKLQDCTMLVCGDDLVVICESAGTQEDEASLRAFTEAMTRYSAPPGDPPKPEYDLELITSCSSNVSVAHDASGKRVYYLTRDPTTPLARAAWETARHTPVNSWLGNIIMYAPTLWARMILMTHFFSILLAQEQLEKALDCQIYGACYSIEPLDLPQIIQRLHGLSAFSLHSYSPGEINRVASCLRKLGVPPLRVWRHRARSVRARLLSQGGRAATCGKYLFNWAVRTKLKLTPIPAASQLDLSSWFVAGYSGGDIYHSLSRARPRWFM

Question: What does the source list for `COC[C@H]1CN(C(=O)c2cnn(C3CCC3)c2C2=Cc3cc(OC)ccc3-c3c(C4CCCCC4)c4ccc(C(=O)NS(=O)(=O)C(C)C)cc4n3C2)CCO1`?
Answer: IC50 (HCV NS5B; class symbol): < 1.7 nM; IC50 (HCV NS5B; exact value): < 1.7 nM; EC50 (HCV replicon; class symbol): 1.7 to 500 nM; EC50 (HCV replicon; exact value): 10 nM

Question: What does the source list for `COc1ccc2c(c1)C=C(c1c(C(=O)N3C[C@@H](C)O[C@@H](C)C3)cnn1C1CCC1)Cn1c-2c(C2CCCCC2)c2ccc(C(=O)NS(=O)(=O)C(C)C)cc21`?
Answer: IC50 (HCV NS5B; class symbol): 1.7 to 500 nM; EC50 (HCV replicon; class symbol): 1.7 to 500 nM

Question: How did the IC50 (HCV NS5B; class symbol) turn out when `COc1ccc2c(c1)C=C(c1c(C(=O)N3C[C@@H](C)O[C@@H](C)C3)ncn1C1CCC1)Cn1c-2c(C2CCCCC2)c2ccc(C(=O)NS(=O)(=O)C(C)C)cc21` was run?
Answer: The IC50 was 1.7 to 500 nM.

Question: What about the EC50 (HCV replicon; class symbol) of the same compound?
Answer: The EC50 was 1.7 to 500 nM.

Question: Which IC50 (HCV NS5B; class symbol) does the source give for `COc1ccc2c(c1)C=C(c1c(C(=O)N3C4CCC3CC(C)(O)C4)cnn1-c1ccncc1C)Cn1c-2c(C2CCCCC2)c2ccc(C(=O)NS(=O)(=O)C(C)C)cc21` (stereo not drawn) here?
Answer: Its IC50 is 1.7 to 500 nM.

Question: And the EC50 (HCV replicon; class symbol)?
Answer: Its EC50 is 1.7 to 500 nM.

Question: With `COc1ccc2c(c1)C=C(c1c(C(=O)N3CC4CCC3C4)cnn1C1CCC1)Cn1c-2c(C2CCCCC2)c2ccc(C(=O)NS(=O)(=O)C(C)C)cc21` (stereo not drawn) as the compound, how does the IC50 (HCV NS5B; class symbol) read?
Answer: Its IC50 is 1.7 to 500 nM.

Question: And the EC50 (HCV replicon; class symbol)?
Answer: Its EC50 is 1.7 to 500 nM.

Question: `COc1ccc2c(c1)C=C(c1c(C(=O)N3C[C@@H]4C[C@H]3CN4C)cnn1C1CCC1)Cn1c-2c(C2CCCCC2)c2ccc(C(=O)NS(=O)(=O)C(C)C)cc21` was tested. Which IC50 (HCV NS5B; class symbol) did it give?
Answer: The IC50 was 1.7 to 500 nM.

Question: And the EC50 (HCV replicon; class symbol)?
Answer: The EC50 was 1.7 to 500 nM.

Question: What does the source list for `COc1ccc2c(c1)C=C(c1c(C(=O)N3C[C@@H]4C[C@H]3CN4CC3CC3)c(C)nn1C1CCC1)Cn1c-2c(C2CCCCC2)c2ccc(C(=O)NS(=O)(=O)C(C)C)cc21`?
Answer: IC50 (HCV NS5B; class symbol): 1.7 to 500 nM; EC50 (HCV replicon; class symbol): 1.7 to 500 nM

Question: How did the IC50 (HCV NS5B; class symbol) turn out when `COc1ccc2c(c1)C=C(c1c(C(=O)N3C[C@@H](C)N(C)[C@@H](C)C3)cnn1C1CC1)Cn1c-2c(C2CCCCC2)c2ccc(C(=O)NS(=O)(=O)C(C)C)cc21` was run?
Answer: Its IC50 is 1.7 to 500 nM.

Question: And the EC50 (HCV replicon; class symbol)?
Answer: The EC50 was 1.7 to 500 nM.

Question: How did the IC50 (HCV NS5B; class symbol) turn out when `COc1ccc2c(c1)C=C(c1c(C(=O)N3C[C@@H](C)O[C@@H](C)C3)cnn1-c1ccccn1)Cn1c-2c(C2CCCCC2)c2ccc(C(=O)NS(=O)(=O)C(C)C)cc21` was run?
Answer: Its IC50 is 1.7 to 500 nM.

Question: And the EC50 (HCV replicon; class symbol)?
Answer: Its EC50 is 1.7 to 500 nM.

Question: `COc1ccc2c(c1)C=C(c1c(C(=O)N3C[C@@H](C)O[C@@H](C)C3)cnn1C1CCOCC1)Cn1c-2c(C2CCCCC2)c2ccc(C(=O)NS(=O)(=O)CC(C)C)cc21` was tested. Which IC50 (HCV NS5B; class symbol) did it give?
Answer: Its IC50 is 1.7 to 500 nM.

Question: And the EC50 (HCV replicon; class symbol)?
Answer: The EC50 was 1.7 to 500 nM.

Question: With `COc1ccc2c(c1)C=C(c1c(C(=O)N3C[C@@H](C)N(C)[C@@H](C)C3)cnn1C1CCOCC1)Cn1c-2c(C2CCCCC2)c2ccc(C(=O)NS(=O)(=O)C(C)C)cc21` as the compound, how does the IC50 (HCV NS5B; class symbol) read?
Answer: The IC50 was 1.7 to 500 nM.

Question: And the EC50 (HCV replicon; class symbol)?
Answer: Its EC50 is 1.7 to 500 nM.
